In experiment [1] the test system is Aerobacter aerogenes. As to the kind of experiment: agar plate paper-disc inhibition zone screening. Format: cell-based. Particulars: Klebsiella aerogenes, read-out: Inhibition Zone Diameter mm (Dose mg/ml) A. Aerogenes; for zone of inhibition at 500 µg/mL: Dose 0.5 mg/ml; for zone of inhibition at 1000 µg/mL: Dose 1.0 mg/ml; for zone of inhibition at 3000 µg/mL: Dose 3.0 mg/ml. The procedure, abridged:
(§1)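 Overnight bacterial cultures were suspended in 0.85% saline to 20-35% light transmittancy and mixed into molten assay agar poured in trays. Compounds at 3,000, 1,000, 500, 100 and 10 mcg/ml (solvent <10%) were applied to 12.7 mm paper discs; after 18-20 h at 37°C, inhibition zone diameters were measured in mm.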

Experiment [2] relates to Bacillus subtilis. As to the kind of experiment: agar plate paper-disc inhibition zone screening. Format: cell-based. Particulars: read-out: Inhibition Zone Diameter mm (Dose mg/ml) B. Subtilis; for zone of inhibition at 1000 µg/mL: Dose 1.0 mg/ml; for zone of inhibition at 3000 µg/mL: Dose 3.0 mg/ml. The procedure, abridged: as §1
For experiment [3], the system named is Escherichia coli. Briefly: agar plate paper-disc inhibition zone screening. Format: cell-based. Conditions: read-out: Inhibition Zone Diameter mm (Dose mg/ml) E. Coli; for zone of inhibition at 500 µg/mL: Dose 0.5 mg/ml; for zone of inhibition at 3000 µg/mL: Dose 3.0 mg/ml. A digest of the protocol:
as §1

The test system of experiment [4] is Streptococcus faecalis. As to the kind of experiment: agar plate paper-disc inhibition zone screening. In kind it is cell-based. Particulars: Enterococcus faecalis, read-out: Inhibition Zone Diameter mm (Dose mg/ml) S. Faecalis; for zone of inhibition at 3000 µg/mL: Dose 3.0 mg/ml. The procedure, abridged:
as §1

In experiment [5] the test system is Penicillium avellaneum. Briefly: agar plate paper-disc inhibition zone screening. Particulars: Hamigera avellanea; Dose 3.0 mg/ml; read-out: Inhibition Zone Diameter mm (Dose mg/ml) P. Avellaneum. In kind it is cell-based. The procedure, abridged: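 Mycelia and spores from a six-day 28°C agar culture, suspended in saline with 0.05% Tween 80 at 20% transmittancy, were seeded into molten agar trays. Compounds at 3,000, 1,000, 500, 100 and 10 mcg/ml (solvent <10%) were applied on 12.7 mm paper discs. After at least 20-24 h incubation, inhibition zone diameter was measured in mm.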

Experiment [6] concerns lymphocytic leukemia P388. As to the kind of experiment: in vivo lymphocytic leukemia P388 test. Set-up: species or system mice. Conditions: Mus musculus, P388, ip, 720 h, two single doses four days apart, read-out: T/C × 100 (Percent); for response vs control in vivo at 0.78 mg/kg: P388, Dose 0.78 mg/kg intraperitoneally; for response vs control in vivo at 1.56 mg/kg: P388, Dose 1.56 mg/kg intraperitoneally; for response vs control in vivo at 25 mg/kg: P388, Dose 25 mg/kg intraperitoneally; for response vs control in vivo at 3.12 mg/kg: P388, Dose 3.12 mg/kg intraperitoneally; for response vs control in vivo at 6.25 mg/kg: P388, Dose 6.25 mg/kg intraperitoneally; for response vs control in vivo at 12.5 mg/kg: P388, Dose 12.5 mg/kg intraperitoneally; for response vs control in vivo at 50 mg/kg: P388, Dose 50 mg/kg intraperitoneally; for response vs control in vivo at 100 mg/kg: P388, Dose 100 mg/kg intraperitoneally. The procedure: The in vivo lymphocytic leukemia P388 test is carried out by the United States National Cancer Institute. The animals used are either male or female CD2F, mice. There are six to seven animals per test group. The tumor transplant is by intraperitoneal injection of dilute ascitic fluid containing cells of lymphocytic leukemia P388. The test compounds are administered intraperitoneally in two single doses with a four-day interval between doses at various dose levels following tumor inoculation. The animals are weighed and survivors are recorded on a regular basis for 30 days. A ratio of survival time for treated (T)/ control (C) animals is calculated. The criterion for efficacy is T/C x 100 > 125%. The positive control compound in this test is 1,4-dihydroxy-5,8-[bis[[2-[(2-hydroxyethyl)amino]-ethyl]amino]-9,10-anthracene- dione given at dosages ranging from 12.0 to 0.075 mg/kg. See Cancer Chemotherapy Reports, Part 3, 3, 1 (1972) for a comprehensive discussion of the protocol.

On to `CCN(CC)CCn1nc2c3c(c(NCCNCCO)ccc31)C(=O)c1ccccc1-2` [Example 2], for which the zone of inhibition at 500 µg/mL in experiment [1] amounted to 18 mm. Further, in experiment [2] (Dose 0.1 mg/ml), the zone of inhibition at 100 µg/mL worked out at 16 mm. Further, the zone of inhibition at 100 µg/mL in experiment [3] (Dose 0.1 mg/ml) worked out at 14 mm. Moreover, the zone of inhibition at 500 µg/mL in experiment [4] (Dose 0.5 mg/ml) stood at 15 mm. Also, the zone of inhibition at 3000 µg/mL in experiment [5] is 0 mm. Besides, in experiment [6], the response vs control in vivo at 0.78 mg/kg turned out to be 135%, the response vs control in vivo at 1.56 mg/kg was 142% and the response vs control in vivo at 25 mg/kg stood at 197%.
As to `CCN(CC)CCn1nc2c3c(c(NCCNC)ccc31)C(=O)c1c(O)ccc(O)c1-2` [Example 31, 2-[2-(Diethylamino)ethyl]-7,10-dihydroxy-5-[[2-(methylamino)ethyl]amino]anthra[1,9-cd]pyrazol-6(2H)-one], the zone of inhibition at 500 µg/mL in experiment [1] came out at 16 mm. In addition, in experiment [2], the zone of inhibition at 1000 µg/mL was 17 mm. Also, the zone of inhibition at 500 µg/mL in experiment [3] is 16 mm. Further, in experiment [4], the zone of inhibition at 3000 µg/mL was 14 mm. Moreover, in experiment [5], the zone of inhibition at 3000 µg/mL worked out at 0 mm. Also, in experiment [6], the response vs control in vivo at 3.12 mg/kg turned out to be 154%, the response vs control in vivo at 6.25 mg/kg was 163%, the response vs control in vivo at 12.5 mg/kg stood at 191% and the response vs control in vivo at 25 mg/kg stood at 219%. For the same molecule, in experiment [6], the response vs control in vivo at 50 mg/kg turned out to be 172%.
Take `CN(C)CCn1nc2c3c(c(NCCNCCO)ccc31)C(=O)c1c(O)ccc(O)c1-2` [Example 32]: in experiment [1], the zone of inhibition at 1000 µg/mL amounted to 14 mm. For the same molecule, in experiment [2], the zone of inhibition at 1000 µg/mL was found to be 15 mm. Further, the zone of inhibition at 500 µg/mL in experiment [3] amounted to 15 mm. For the same molecule, the zone of inhibition at 3000 µg/mL in experiment [4] was 0 mm. For the same molecule, the zone of inhibition at 3000 µg/mL in experiment [5] turned out to be 0 mm. In addition, in experiment [6], the response vs control in vivo at 0.78 mg/kg came out at 161%, the response vs control in vivo at 1.56 mg/kg turned out to be 163% and the response vs control in vivo at 6.25 mg/kg worked out at 214%.
On to `CN(C)CCn1nc2c3c(c(NCCN)ccc31)C(=O)c1c(O)ccc(O)c1-2` [Example 33, 5-[(2-Aminoethyl)amino]-2-[2-(dimethylamino)ethyl]-7,10-dihydroxyanthra[1,9-cd]pyrazol-6(2H)-one], for which the zone of inhibition at 500 µg/mL in experiment [1] and in experiment [3] was 14 mm each time. For the same molecule, the zone of inhibition at 1000 µg/mL in experiment [2] is 14 mm. The zone of inhibition at 3000 µg/mL in experiment [4] was 16 mm; in experiment [5], 0 mm. Further, the response vs control in vivo at 3.12 mg/kg in experiment [6] was 182%. Moreover, the response vs control in vivo at 6.25 mg/kg in experiment [6] was found to be 182%.
Regarding `CN(C)CCn1nc2c3c(c(NCCCN)ccc31)C(=O)c1c(O)ccc(O)c1-2` [Example 34, 5-[(3-Aminopropyl)amino]-2-[2-(dimethylamino)ethyl]-7,10-dihydroxyanthra[1,9-cd]pyrazol-6(2H)-one], the zone of inhibition at 3000 µg/mL in experiment [1] turned out to be 14 mm; in experiment [2], 0 mm; in experiment [3], 15 mm; in experiment [4], 0 mm; in experiment [5], 0 mm. For the same molecule, in experiment [6], the response vs control in vivo at 6.25 mg/kg was determined as 196%. In experiment [6], the response vs control in vivo at 12.5 mg/kg is 205%.
`CCN(CC)CCNc1ccc2c3c(nn2CCO)-c2c(O)ccc(O)c2C(=O)c13` [Example 35, 5-[[2-(Diethylamino)ethyl]amino]-7,10-dihydroxy-2-(2-hydroxyethyl)anthra[1,9-cd]pyrazol-6(2H)-one]: the zone of inhibition at 3000 µg/mL in experiment [1] was 0 mm; in experiment [3], 0 mm; in experiment [4], 14 mm; in experiment [5], 0 mm. Further, the zone of inhibition at 500 µg/mL in experiment [2] (Dose 0.5 mg/ml) was determined as 14 mm. Moreover, the response vs control in vivo at 25 mg/kg in experiment [6] was found to be 128%. In addition, in experiment [6] (P388, Dose 37.5 mg/kg intraperitoneally), the response vs control in vivo at 37.5 mg/kg came to 135%. In addition, the response vs control in vivo at 75 mg/kg in experiment [6] (P388, Dose 75 mg/kg intraperitoneally) was 135%. The response vs control in vivo at 150 mg/kg in experiment [6] (P388, Dose 150 mg/kg intraperitoneally) was found to be 155%. Besides, the response vs control in vivo at 200 mg/kg in experiment [6] (P388, Dose 200 mg/kg intraperitoneally) was 167%. The response vs control in vivo at 300 mg/kg in experiment [6] (P388, Dose 300 mg/kg intraperitoneally) came out at 177%. In experiment [6] (P388, Dose 400 mg/kg intraperitoneally), the response vs control in vivo at 400 mg/kg stood at 190%.
Turning to `O=C1c2c(O)ccc(O)c2-c2nn(CCO)c3ccc(NCCNCCO)c1c23` [Example 36, 5-[[2-[(2-Hydroxyethyl)amino]ethyl]amino]-7,10-dihydroxy-2-(2-hydroxyethyl)anthra[1,9-cd]pyrazol-6(2H)- . one], the zone of inhibition at 3000 µg/mL came out at 0 mm in experiment [1]; 17 mm in experiment [2]; 0 mm in experiment [3]; 0 mm in experiment [4]; 0 mm in experiment [5]. Besides, the response vs control in vivo at 6.25 mg/kg in experiment [6] stood at 143%. For the same molecule, in experiment [6], the response vs control in vivo at 12.5 mg/kg was determined as 158%. Besides, the response vs control in vivo at 50 mg/kg in experiment [6] amounted to 163%. For the same molecule, in experiment [6], the response vs control in vivo at 100 mg/kg was 172%.
In the case of `NCCNc1ccc2c3c(nn2CCO)-c2c(O)ccc(O)c2C(=O)c13` [Example 37, 5-[(2-Aminoethyl)amino]-7,10-dihydroxy-2-(2-hydroxyethyl)anthra[1,9-cd]pyrazol-6(2H)-one], the zone of inhibition at 1000 µg/mL in experiment [1] was determined as 15 mm. Further, the zone of inhibition at 1000 µg/mL in experiment [2] was found to be 15 mm. For the same molecule, in experiment [3], the zone of inhibition at 3000 µg/mL worked out at 0 mm. For the same molecule, in experiment [4], the zone of inhibition at 3000 µg/mL is 0 mm. For the same molecule, the zone of inhibition at 3000 µg/mL in experiment [5] was found to be 0 mm. In addition, in experiment [6], the response vs control in vivo at 6.25 mg/kg turned out to be 135%, the response vs control in vivo at 12.5 mg/kg turned out to be 145%, the response vs control in vivo at 25 mg/kg stood at 146% and the response vs control in vivo at 50 mg/kg was determined as 162%.
On to `CN(C)CCNc1ccc2c3c(nn2CCO)-c2c(O)ccc(O)c2C(=O)c13` [Example 39], for which the zone of inhibition at 500 µg/mL in experiment [1] stood at 15 mm. The zone of inhibition at 3000 µg/mL in experiment [2] was found to be 0 mm. The zone of inhibition at 3000 µg/mL in experiment [3] stood at 0 mm. The zone of inhibition at 3000 µg/mL in experiment [4] was 14 mm. The zone of inhibition at 3000 µg/mL in experiment [5] worked out at 0 mm. In experiment [6], the response vs control in vivo at 12.5 mg/kg was 124%, the response vs control in vivo at 25 mg/kg is 153%, the response vs control in vivo at 50 mg/kg came to 180% and the response vs control in vivo at 100 mg/kg was 225%.

Values taken from patent publication EP0103381B1, “Substituted anthra(1,9-cd)pyrazol-6(2H)-ones” (WARNER-LAMBERT COMPANY, priority 1982, dated 1984).
